Measured values reported in patent publication US20050124696A1, “Pharmaceutical compositions” (priority 2001, published 2005).

Assays:
NF-κB [1] = assay: Luciferase activity of resistant HeLa NF-κB-LUC cell pool after stimulation; format: cell-based, human; details: quadruplicate samples, control 1369±149
Text: (§1) The fragment Kpn I-BamH I from the pGL3 basic vector containing the luciferase gene (PROMEGA) was inserted in the pcDNA3 vector (INVITROGEN) digested with Bgl II-KpnI. (This digestion removes the CMV-promoter from pcDNA3.) The resulting new vector was digested with Kpn I-Hind III and a promoter containing a ‘5×NF-κB binding sites—TATA box’ sequence was inserted upstream of the luciferase gene. This vector has been named STM.
To obtain stable HeLa cell lines expressing the luciferase gene under the control of NF-κB, HeLa cells were transfected (using lipofectamine plus GIBCO) with the STM-Pvu I linearized vector, and selected for 20 days with G418 (800 μg/ml). After selection, the resistant HeLa cell pool was controlled (in quadruplicate samples) for luciferase activity after stimulation with TNFα, IL-1 and TPA. The respective luciferase activities were: • 1) Control: 1369±149 • 2) TNFα: 6111±1231 • 3) IL-1: 11814±1151 • 4) TPA: 7181±444 Clones were selected.

uninfected cells = assay: Toxicity to uninfected cells compared with the anti-viral concentration; format: cell-based
Sendai virus = assay: Replication of Sendai virus in 37RC cells (HAU titration of virus yield); format: cell-based; details: Respirovirus muris, Sendai virus yield at 24 hours after infection, read-out: ID50 (50% inhibitory dose/concentration)
NF-κB [2] = assay: NF-κB-dependent luciferase reporter gene assay in HeLa κB-transformed cells, TPA stimulated; format: cell-based; details: Homo sapiens; HeLa NF-κB-STM luciferase, 8 h treatment, TPA 25 ng/ml 2 h after exposure; read-out: NF-κB; IC50 (concentration at which the tested compound halved the NF-κB activity)
Experimental: (§2) Method: HeLa cell clone 13B, stably transfected with a luciferase reporter plasmid controlled by the human hsp70 promoter, and HeLa κB-transformed cells, stably transfected with a luciferase reporter plasmid controlled by a synthetic NF-κB-STM construct, were maintained in DMEM medium supplemented with 10% FBS, L-glutamine (2 mM) and G418 (250 μg/ml) at 37° C. in a 5% CO2 humidified atmosphere.
(§3) Cells were seeded at a density of 4×10^4 cells/well in 96-well plates. After 18-20 h, the medium was removed and cells were treated for 8 h with the test compounds (100 μl) at the appropriate dilutions in serum-free medium. For the NF-κB-dependent reporter gene assay, cells were stimulated with TPA (25 ng/ml) 2h after exposure to the compounds.
(§4) After incubation, the medium was removed and cells were lysed in 10 μl of lysis buffer. The luciferase activity was determined by adding 100 μl of substrate and measuring the release of light using a Victor 1420 microplate reader (Wallac, Finland).
as §1, with “This vector has been named STM.” left out

HSF = assay: hsp70 promoter luciferase reporter assay in HeLa cell clone 13B (HSF activation); format: cell-based, human; details: HeLa clone 13B, 8 h treatment
Experimental: as §2, §3, §4
The AC200/μM for HSF is the concentration at which the tested compound doubled the HSF activity in this assay. The IC50/μM for NF-κB is the concentration at which the tested compound halved the NF-κB activity in this assay.

in vitro = format: cell-based; details: human
Experimental: HeLa cells were plated in 96-well microtiter plates in 100 μl culture medium (4×10^4/well). After 20 hours, the cells were exposed to the test compounds at different dilutions and incubated for the next 8 h at 37° C. in a 5% CO2 humidified atmosphere. After 6 h incubation, the Alamar Blue was added in an amount equal to 10% of the culture volume (10 μl). Two hours after the addition of the Alamar Blue, the fluorescence was measured using a Victor 1420 microplate reader.
The LC50/μM is the concentration at which the tested compound killed half the cells in this assay.

37RC cells = assay: Neutral Red cell viability assay; format: cell-based, monkey; details: uninfected 37RC cells, 24 h
Experimental: Cell viability was determined using the Neutral Red assay. 37RC cells were seeded at density of 6×10^4 cells/well in 24-well plates and incubated for 24 h. Confluent 37RC monolayers were treated with the test compounds at different dilutions for 24 h at 37° C. After incubation, the medium was removed and the cells were incubated with RPM1 medium containing 40 μg/ml Neutral Red dye (500 μl/well). After 2 h at 37° C., the monolayers were washed with phosphate-buffered saline (PBS) and then with a solution containing 1% CaCl2 and 0.5% formaldehyde. After washing, a solution containing 1% acetic acid/50% ethanol was added to the monolayers (250 μl/well). After 10 min at room temperature, the absorbance was determined with a microplate reader (Victor 1420, Wallac) at 540 nm.

NF-κB [3] = details: chemical or physiological inducers; 'at the same concentration'; cited from earlier work
HSF1 = details: cited from earlier work

## TNFα
NF-κB [1]
  luciferase activity after stimulation: 6111±1231

## CC(C)(C)[Si](C)(C)OC1C=CC(=O)CC1 (stereo not drawn) [Compound A, 4-tert-butyldimethylsilyloxy-cyclohex-2-en-1-one]
Uninfected cells
  concentration of anti-viral effect relative to the concentration toxic to uninfected cells: below that at which they were toxic to uninfected cells
Sendai virus
  IC50: 1 µM

## COC(=O)C(CSC1CC(=O)CC(O[Si](C)(C)C(C)(C)C)C1)NC(=O)OC(C)(C)C (stereo not drawn) [CTM-78, 2-tert-Butoxycarbonylamino-3-[3-(tert-butyl-dimethyl-silanyloxy)-5-oxo-cyclohexylsulfanyl]-propionic acid methyl ester]
NF-κB [2]
  IC50: 22 µM
HSF
  HSF; AC200 (concentration at which the tested compound doubled the HSF activity): 45 µM
In vitro
  CC50 at 8 h: > 800 µM
37RC cells
  LD50 (50% lethal dose/concentration): 18.6 µM
Sendai virus
  IC50: 3 µM

## COC(=O)[C@H](CS[C@H]1CC(=O)CC[C@@H]1O[Si](C)(C)C(C)(C)C)NC(=O)OC(C)(C)C [CTM-68, 2-tert-Butoxycarbonylamino-3-[2-(tert-butyl-dimethyl-silanyloxy)-5-oxo-cyclohexylsulfanyl]-propionic acid methyl ester]
NF-κB [2]
  IC50: 17 µM
HSF
  HSF; AC200 (concentration at which the tested compound doubled the HSF activity): 98 µM
In vitro
  CC50 at 8 h: > 800 µM
37RC cells
  LD50 (50% lethal dose/concentration): 9.8 µM
Sendai virus
  IC50: 1 µM

## O=C1C=CCC1 [cyclopent-2-en-1-one]
NF-κB [3]
  concentration shown to block NF-κB activation: 125 to 500 µM
HSF1
  concentration shown to activate HSF1 and trigger synthesis of HSP70: 125 to 500 µM

## CC(C)(C)[Si](C)(C)OC1CC=CC(=O)C1 (stereo not drawn) [Compound B, 5-tert-butyldimethylsilyloxy-cyclohex-2-en-1-one]
Uninfected cells
  concentration of anti-viral effect relative to the concentration toxic to uninfected cells: below that at which they were toxic to uninfected cells
Sendai virus
  IC50: 0.4 µM

## CCCCCCCCCCCCCC(=O)O[C@@H]1[C@@H](C)[C@@]2(O)[C@@H](C=C(CO)C[C@]3(O)C(=O)C(C)=C[C@@H]23)[C@@H]2C(C)(C)[C@]12OC(C)=O [TPA, 12-O-tetradecanoylphorbol-13-acetate]
NF-κB [1]
  luciferase activity after stimulation: 7181±444
